Assay results taken from patent publication US6753005B1, “Method for tissue perfusion” (Direct Therapeutics, Inc., priority 1997, dated 2004).
“Also recorded” adds a separate entry of the source. Read-outs that look alike come from different tables or passages of the source. Marks after values point to notes of the source that are not given here.

Assays:
normal canine prostate = test: Normal canine prostate model, intraprostatic injection
Protocol: Random-source adult male canines were used in this experiment.
Body surface area (m2) was calculated for each animal using published tables.
On the day of surgery, the animals were preanesthetized with acepromazine (0.22 mg/kg) and atropine (0.05 mg/kg) intramuscularly. General anesthesia was induced with intravenous thiopental sodium (20-25 mg/kg) and, following orotracheal intubation, was maintained with a 0.5-2.0% halothane-oxygen mixture given through a semi-closed circle system. Perioperative antibiotics consisted of intravenous gentamicin (3 mg/kg) on the day of surgery and daily intramuscular gentamicin (3 mg/kg) for seven days following surgery.
In each animal, an 8 French urinary catheter was passed per urethra into the bladder, and the bladder was filled with normal saline. A diagnostic Aloka Echo SSD650 ultrasound machine with a UST 664 5/7.5 MHZ biplanar linear array transrectal probe (Wallingford, Conn.) was used to determine the maximal axial (transverse) width, height, and midline sagittal (longitudinal) length. The length was measured in the midline from the distal most aspect of the apex to the cephalad most portion of the gland. The volume was then determined using the following formula: length×width×½ height. A lower abdominal midline incision was created, and the peritoneal cavity was entered. The bladder and prostate were exposed and the periprostatic fat was carefully dissected off of the base of the gland. Using TRUS imaging of the prostate as well as direct visualization through the peritoneotomy a three inch 20 gauge spinal needle connected to a standard 10-cc luer-lock syringe containing the appropriate aliquot for injection was guided into the base of the right lobe of the prostate. The needle tip was localized within the prostatic parenchyma with ultrasound guidance and appropriately positioned.
Animals were randomly divided into subgroups. Animals A1 and A2 received a volume of dehydrated ethanol equal to 100% of the measured prostate volume while the remaining animals received a volume of 98% dehydrated ethanol equal to 50% of the total gland volume as determined by TRUS imaging. The animals received escalating doses of Carmustine dissolved in dehydrated ethanol: A1 and A2 2 mg/ml; B1 and B2, 5 mg/ml; C1 and C2 12.5 mg/ml; D1 and D2 18 mg/ml; and E1 and E2, 25 mg/ml. All animal subgroups were injected on separate days under general anesthesia through a midline peritoneotomy approach using TRUS guidance for needle placement. The needle was initially positioned at the ventral aspect of the apex of the gland and then withdrawn from apex to base during the injection. The needle was then repositioned toward the dorsal aspect of the gland at the apex and withdrawn toward the base during the injection so that as much of the parenchyma could be covered as possible.
Fourteen days following injection all animals underwent repeat TRUS imaging of the prostate gland under general anesthesia and were then euthanized by exsanguination under deep general anesthesia. The bladders and prostates were excised enbloc and fixed in formalin. If there was any evidence of perirectal inflammation or suspicion of pathology a section of the rectum was removed for pathologic examination. After adequate tissue fixation in formalin, the prostate glands were step sectioned and the volume of the prostate parenchyma affected (cm3) was calculated and quantitated based on the measured length, height and thickness of individual step sections of the gland. The volumes were then added together resulting in a quantification of the total parenchymal volume affected on a prostate gland for prostate gland basis. The tissue was then submitted for histopathologic interpretation.

normal rat liver = test: Normal rat liver model, intrahepatic injection; format: in vivo; conditions: for Clinical Signs / Gross Findings (liver lesions) / Survival: 2 rats; for Gross Findings (liver lesions): 2 weeks; for Survival: sacrifice 2 weeks
Protocol: 54 male Sprague-Dawley rats 250-300 g in body weight were caged in groups of 2 by treatment group, in standard animal housing facilities and given free access to food and water. Prior to surgery, animals received 0.2 ml intramuscular injection of ketamine and xylazine (30 mg/kg and 4 mg/kg respectively). Rats were anesthetized and fixed on a restraining board. The right upper quadrant of the abdomen was shaved and prepped with betadine solution. A lateral incision approximately 1 cm in length was made 2 cm to the right of the abdominal mid-line and 2 cm below the last rib on the right side and the liver exposed. Under direct visual observation, the solution was injected into the liver slowly over a period of about 2 minutes, using a Hamilton microliter syringe (702) equipped with a 27 gauge needle. The needle was withdrawn and the abdominal incision closed using 4-0 plain gut to seal the peritoneum and skin clips to close the skin. Observations of each animal were made hourly for 4 hours during the day of surgery and daily thereafter for two weeks. At two weeks the animals were sacrificed and their livers examined grossly for lesions at the site of injection.

Walker 256 tumors = conditions: for Tumor Free at Time of Death: number of animals
Protocol: Tumor fragments derived from serially transplanted Walker 256 tumors were prepared and transplanted subcutaneously into female Harlan Sprague Dawley rats. Once the tumors reached appropriate size, animals were randomized into treatment groups of 5 or 6 animals and an untreated control group of 10 animals. Tumor volume for each animal was calculated using the formula: volume=(I×w2)/2. Observations included daily visual observation of each animal's general health, tumor measurements three times per week and weight every week. These measurements continued until: efficacy was apparent, the animal was terminal, the tumor became necrotic, tumor interfered with the animal's ability to eat or drink, or ten weeks beyond commencement of dosing.
Fifty rats bearing tumors ranging from 550 to 1634 mm^3 were randomly divided into eight treatment groups and 2 control groups. The following treatments were respectively administered to the eight treatment groups: […]

[1] = all animals, 14 days after injection
[2] = carmustine 5 mg/ml ethanol, 50% of prostate volume, prostate volume 8.42, 14 days
[3] = carmustine 5 mg/ml ethanol, 50% of prostate volume, prostate volume 9.8, 14 days
[4] = carmustine 12.5 mg/ml ethanol, 50% of prostate volume, prostate volume 4.36, 14 days
[5] = carmustine 12.5 mg/ml ethanol, 50% of prostate volume, prostate volume 20.16, 14 days
[6] = carmustine 18 mg/ml ethanol, 50% of prostate volume, prostate volume 27.75, 14 days
[7] = carmustine 18 mg/ml ethanol, 50% of prostate volume, prostate volume 37.2, 14 days
[8] = carmustine 25 mg/ml ethanol, 50% of prostate volume, prostate volume 22.14, 14 days
[9] = 100 μl ethanol + 1.25 mg carmustine (12.5 mg/ml)
[10] = 100 μl ethanol + 2.5 mg carmustine (25 mg/ml)
[11] = 100 μl ethanol + 5 mg carmustine (50 mg/ml)
[12] = 100 μl ethanol + 10 mg carmustine (100 mg/ml)
[13] = 100 μl ethanol, 12.5-50 mg/ml carmustine
[14] = Group VI: carmustine 3.3 mg/ml in absolute ethanol, 100% tumor volume

SMILES: O=NN(CCCl)C(=O)NCCCl [Carmustine, carmustine]
- relation of carmustine concentration to volume of tissue affected (normal canine prostate; 2-25 mg/ml carmustine in dehydrated ethanol, 14 days): highest concentrations of carmustine were associated with the largest volumes of tissue affected
- rectal injuries (normal canine prostate; all animals): no rectal injuries
- findings in prostatic parenchyma (TRUS and step sections) (normal canine prostate; [1]): hemorrhagic and coagulative necrosis
- findings in the urethra (normal canine prostate; [1]): submucosal hemorrhage, mucosal erosion and inflammation
- Periprostatic Tissue Involvement (normal canine prostate; carmustine 5 mg/ml ethanol, 50% of prostate volume, prostate volume 8.42): Marked fat necrosis
- Volume Affected Left (normal canine prostate; [2]): 0.68 cc^3
- Volume Affected PU (periurethral) (normal canine prostate; [2]): 0 cc^3
- Volume Affected Right (normal canine prostate; [2]): 1.73 cc^3
- Periprostatic Tissue Involvement (normal canine prostate; carmustine 5 mg/ml ethanol, 50% of prostate volume, prostate volume 9.8): Cystic necrosis R
- Volume Affected Left (normal canine prostate; [3]): 1.61 cc^3
- Volume Affected PU (periurethral) (normal canine prostate; [3]): 2.51 cc^3
- Volume Affected Right (normal canine prostate; [3]): 0.85 cc^3
- Periprostatic Tissue Involvement (normal canine prostate; carmustine 12.5 mg/ml ethanol, 50% of prostate volume, prostate volume 4.36): Moderate fat necrosis
- Volume Affected PU (periurethral) (normal canine prostate; [4]): 0.62 cc^3
- Volume Affected left + right (normal canine prostate; [4]): 1.8 cc^3
- Periprostatic Tissue Involvement (normal canine prostate; carmustine 12.5 mg/ml ethanol, 50% of prostate volume, prostate volume 20.16): Minimal fat necrosis
- Volume Affected Left (normal canine prostate; [5]): 1.8 cc^3
- Volume Affected PU (periurethral) (normal canine prostate; [5]): 0 cc^3
- Volume Affected Right (normal canine prostate; [5]): 1.4 cc^3
- Periprostatic Tissue Involvement (normal canine prostate; carmustine 18 mg/ml ethanol, 50% of prostate volume, prostate volume 27.75): Marked fat necrosis
- Volume Affected Left (normal canine prostate; [6]): 8.35 cc^3
- Volume Affected PU (periurethral) (normal canine prostate; [6]): 1.2 cc^3
- Volume Affected Right (normal canine prostate; [6]): 12.31 cc^3
- Periprostatic Tissue Involvement (normal canine prostate; carmustine 18 mg/ml ethanol, 50% of prostate volume, prostate volume 37.2): Marked fat necrosis
- Volume Affected Left (normal canine prostate; [7]): 11.76 cc^3
- Volume Affected PU (periurethral) (normal canine prostate; [7]): 3.84 cc^3
- Volume Affected Right (normal canine prostate; [7]): 9.73 cc^3
- Periprostatic Tissue Involvement (normal canine prostate; carmustine 25 mg/ml ethanol, 50% of prostate volume, prostate volume 22.14): Mild fat necrosis
- Volume Affected Left (normal canine prostate; [8]): 7.5 cc^3
- Volume Affected PU (periurethral) (normal canine prostate; [8]): 0 cc^3
- Volume Affected Right (normal canine prostate; [8]): 4.8 cc^3
- Periprostatic Tissue Involvement (normal canine prostate; carmustine 25 mg/ml ethanol, 50% of prostate volume, prostate volume 32.64): Large pelvic abscess
- Volume Affected left + right + periurethral (normal canine prostate; carmustine 25 mg/ml ethanol, 50% of prostate volume, prostate volume 32.64, 14 days): 32.64** cc^3
- Clinical Signs (normal rat liver; [9]): ANAS
- Gross Findings (liver lesions) (normal rat liver; [9]): no lesion
- Survival (normal rat liver; [9]): term
- Gross Findings (liver lesions) (normal rat liver; [10]): very small lesions
- Survival (normal rat liver; [10]): term
- Gross Findings (liver lesions) (normal rat liver; [11]): small lesions
- Survival (normal rat liver; [11]): term
- Clinical Signs (normal rat liver; [12]): Less active &
- Gross Findings (liver lesions) (normal rat liver; [12]): large areas of tissue destruction; also recorded: fice. Large areas
- Survival (normal rat liver; [12]): term
- Clinical signs at sacrifice (normal rat liver; [13]): appeared normal at sacrifice
- gross examination of the liver (normal rat liver; [13]): no or small lesions
- toxic effects in normal liver tissue (normal rat liver; solutions containing carmustine up to 50 mg/ml): no toxic effects
- selective effect on tumor cells (Walker 256 tumors; 100% ethanol and 3.3 mg/ml carmustine): selectively kill tumor cells
- Complete Regressors/Total (Walker 256 tumors; [14]): 4/5
- local findings in the area of the tumor (Walker 256 tumors; [14]): no evidence of scar, hair loss or residual redness
- Mean Days to Tumor Size 5000 mm^3 after treatment (Walker 256 tumors; Group VI: carmustine 3.3 mg/ml in absolute ethanol, 100% tumor volume, 2 animals): 29.5 days
- Tumor Free at Time of Death (Walker 256 tumors; [14]): 3
- Tumor Free at Time of Death (Walker 256 tumors; Group VI: carmustine 3.3 mg/ml in absolute ethanol, 100% tumor volume, listed as carmustine): three
